Patent publication US20240140935A1, “NON-COVALENT DIMER CATION, SALT THEREOF, PREPARATION METHOD THEREOF, AND USE THEREOF AS ANTIOXIDANT” (SUZHOU PROTONATION CHAIN BIOTECHNOLOGY CO., LTD., priority 2022, published 2024)

Columns and labels:
[1] = tested on: L02 human normal hepatocytes; experiment: Carbon tetrachloride hepatotoxicity cell model, levels of ROS, MDA, GSH, SOD and ATP in cell lysate; assay type: cell-based
Protocol: (§1) The salts of Example 1, Example 16, and Example 13 were taken as the compound of experimental groups, vitamin E was taken as the compound of control group. A blank group (without carbon tetrachloride) and a model group (with carbon tetrachloride but with neither the salt of the present application nor vitamin E) were also set.
L02 human normal hepatocytes were uniformly inoculated into a 96-well plate, about 5,000 cells per well. The cells were cultured in a complete DMEM for 6 h. After the cells were completely adhered to the wall, all the media were removed, 100 μL of serum-free DMEM containing 0.02 mg/mL carbon tetrachloride (for the blank group, a serum-free medium without carbon tetrachloride) was added to each well, and the cells were cultured for 12 h. Then, all the media were removed, 100 μL of serum-free DMEM containing […] compound of experimental groups or control group was added to each well (for the blank group and the model group, serum-free DMEM without the compound) according to the groups, and the cells were cultured for 24 h.
(§2) 50 μL of RIPA lysis buffer (strong) was added to each well to lyse the cells, and levels of reactive oxygen species, malondialdehyde, glutathione, superoxide dismutase, and adenosine triphosphate in the cells of each group were detected by using corresponding chemical reagents.

[2] = tested on: L02 human normal hepatocytes; experiment: Palmitate-induced non-alcoholic fatty liver disease cell model, levels of ROS, MDA, GSH, SOD and ATP in cell lysate; assay type: cell-based
Protocol: as §1, with “palmitate)” for “carbon tetrachloride)”, “palmitate” for “carbon tetrachloride”
L02 human normal hepatocytes were uniformly inoculated into a 96-well plate, about 5,000 cells per well. The cells were cultured in a complete DMEM for 6 h. After the cells were completely adhered to the wall, all the media were removed, 100 μL of serum-free medium containing 0.05 mg/mL palmitate was added to each well (for the blank group, a serum-free medium without palmitate), and the cells were cultured for 24 h.
Then, all the media were removed, 100 μL of serum-free DMEM containing […] compound of experimental groups or control group was added to each well (for the blank group and the model group, serum-free DMEM without the compound) according to the groups, and the cells were cultured for 24 h.
as §2

vitamin E
only partially increase: level of ATP in the cells ([1]; FIG. 6 (e)) | level of ATP in the cells ([2]; FIG. 4 (e))
only slightly reduce: level of ROS in the cells ([1]; FIG. 6 (a)) | level of MDA in the cells ([1]; FIG. 6 (b)) | level of ROS in the cells ([2]; FIG. 4 (a)) | level of MDA in the cells ([2]; FIG. 4 (b))
only slightly increase: level of GSH in the cells ([1]; FIG. 6 (c)) | level of SOD in the cells ([1]; FIG. 6 (d)) | level of GSH in the cells ([2]; FIG. 4 (c)) | level of SOD in the cells ([2]; FIG. 4 (d))
